# Assay results as given in US20240285723A1, “COMBINATION COMPOSITIONS FOR THE TREATMENT OF PATHOGEN INFECTIONS AND ASSOCIATED COMPLICATIONS” (priority 2021, published 2024).
# Where no end group is shown, it is not given here.
# Key:
# [1] = test system: LPS-injected mice; test: LPS-induced septic shock mouse model: survival and murine sepsis score (MSS); format: in vivo; details: for disease progression (MSS), compound alone / survival (MSS<3), compound alone: BCP 25 mg/kg or pregnenolone 10 mg/kg i.p. every 12 hrs from 24 h before LPS, n=7
# Procedure: Male wild type 8-10 weeks old mice of inbred strain C57BL/6J-RCC were obtained from Envigo Ltd. All experiments were in accordance and with the approval of the institutional animal care and use committee of Tel-Aviv University for these experiments (permit number 01-20-022). The mice were divided into treatment groups 24 hours before LPS administration. All treatments were administered intraperitoneally (IP). OGP was administered at the indicated doses only twice, 24 hrs before LPS and right before the LPS at a dose of 0.5, 5 or 15 μg/kg. Olorinab was administered at 0.33, 1, or 5 mg/kg twice a day starting 24 hours before LPS. DHEA was injected once a day at a dose of 30 mg/kg, starting 24 hr before LPS injection. β-Caryophyllene (BCP or BCP, used herein interchangeably) and Pregnenolone were injected every 12 hours starting 24 h before the LPS injection. A single IP injection of LPS was administered at 25 μg/gr dose. This study had 2 control groups as indicated in the experiments below. One that received PBS instead of the LPS injection (‘PBS’), and one that received PBS instead of the treatments (CB2 agonist or steroid) before the LPS injection (‘LPS’). For humane reasons murine sepsis score (MSS) was used as a surrogate for survival (Mai et al. Intensive Care Med Exp, 2018 Jul. 27; 6(1):20. doi: 10.1186/s40635-018-0184-3). A low MSS score (0-2) served as a surrogate for survival while mice that reached the score 3 were defined as critically ill and were euthanized.
# Statistical analyses—For survival experiments, Gehan-Breslow-Wilcoxon test was used for multiple groups comparison. For disease progression Dunnett's multiple comparisons test was used. Differences between groups were considered significant when P<0.05.
# A dose response experiment was conducted to test the potential effect of 5aa-OGP in the sepsis model (FIG. 1A). A single injection of 5aa-OGP was administered i.p. at 3 different doses, 0.5 μg/kg, 5 μg/kg and 15 μg/kg, 24 hours prior to the LPS injection; these concentrations were chosen based on the previous works in the lab.
# In a separate experiment, mice received a single i.p. injection of the optimal dose of 5aa-OGP (5 μg/kg) and 24 hours later were intraperitoneal (i.p) injected with a lethal dose of LPS. Control mice received a single PBS injection 24 hours prior to LPS injection.
# In order to test the therapeutic potential of another CB2 agonist, olorinab was tested in improving survival rate in a mouse model of septic shock induced by LPS injection. Olorinab was administered i.p. 24 hours prior to LPS injection followed by twice-daily injections of olorinab.
# The combinations DHEA+olorinab and DHEA+5aa-OGP were tested versus each compound alone and versus vehicle only (no treatment) in LPS-injected mice. The mice received the first dose of treatment 24 hr before LPS injection in the treated groups. All the injections were given i.p., olorinab doses were administered twice a day, DHEA and 5aa-OGP were administered once a day. LPS was given only once.
# The combination BCP+Pregnenolone was tested versus each compound alone and versus vehicle only (no treatment) in LPS-injected mice. Mice were pre-treated with ß-Caryophyllene (BCP. 25 mg/kg) and pregnenolone (Preg, 10 mg/kg), separately (FIG. 4A) and in combination 24 and 12 hrs before LPS injection (25 mg/kg) and then every 12 hrs. All the injections were given i.p., twice a day. LPS was given only once. A Murine Septic Score (MSS) was recorded every 12 hours (FIGS. 4A and 4C). Survival (FIGS. 4B and 4D) was defined as MSS<3. * P<0.05, n=7.
# [2] = test system: polymicrobial sepsis; details: mice; Oberbeck et al. 2001; cited from earlier work
# [3] = test system: patients with dcSSc or dermatomyositis; details: Phase II; dcSSc and dermatomyositis with active skin involvement; cited from earlier work
# [4] = test system: COVID-19 patients; details: COVID-19 patients who did not require oxygen; cited from earlier work
# [5] = test system: T-cells; test: T-cell subsets in spleen and bone marrow of treated mice; format: in vivo, mouse; details: 5 μg/kg/day daily for 5 days; 12-week-old mice
# Description: This is likely due to its strong immunosuppressive actions, including a severe weakening of the humoral/acquired immune system. Our proposed approach uses CB2 agonists that have immunomodulatory roles. On one hand, OGP strongly suppresses the innate immune system, exemplified here as inhibition of cytokine expression by activated macrophages (FIG. 6), and suppression of xylene-induced ear edema (FIG. 7). On the other hand, OGP has no suppressive effects on the adaptive/acquired system, exemplified here by the unaffected number of T cell subsets in mice treated with 5aa-OGP (FIG. 7). 12-week-old mice were injected with 5 μg/kg/day 5aa-OGP, 3 mg/kg/day HU910, or with a vehicle control daily for 5 days. The spleen and bone marrow (BM) were analyzed.
compound,measurement,setting,value
"C=C1CC/C=C(\C)CC[C@@H]2[C@@H]1CC2(C)C [BCP, β-caryophyllene]","disease progression (MSS), compound alone",[1],slight beneficial effect
same,"survival (MSS<3), compound alone",[1],no significant effect
"C[C@]12CC[C@H](O)CC1=CC[C@@H]1[C@@H]2CC[C@]2(C)C(=O)CC[C@@H]12 [DHEA, Dehydroepiandrosterone]",TNF-α release,[2],reduction
same,activity of T-cellular immunity,[2],improved activity
same,survival in septic challenge,[2],increased survival
CCCCCCC(C)(C)c1cc(O)c2c(c1)OC(C)(C)[C@@H]1CC=C(C(=O)O)C[C@@H]21 [Lenabasum],physician-assessed and patient-reported efficacy outcomes,[3],improvement
"CC(=O)[C@H]1CC[C@H]2[C@@H]3CC=C4C[C@@H](O)CC[C@]4(C)[C@H]3CC[C@]12C [Pregnenolone, pregn-5-en-3β-ol-20-one]","disease progression (MSS), compound alone",[1],no significant effect
same,"survival (MSS<3), compound alone",[1],no significant effect
C[C@@H]1C[C@H]2[C@@H]3CCC4=CC(=O)C=C[C@]4(C)[C@@]3(F)[C@@H](O)C[C@]2(C)[C@@]1(O)C(=O)CO [dexamethasone],"mortality, patients who did not require oxygen",[4],significantly increased mortality
CC(C)(C)[C@@H](CO)NC(=O)c1nn(-c2c[n+]([O-])ccn2)c2c1C[C@@H]1C[C@H]21 [olorinab],survival percentage at 0.33 mg/kg,"[1]; 0.33 mg/kg twice daily, i.p.",best survival percentage
same,survival percentage at 1 mg/kg,"[1]; 1 mg/kg twice daily, i.p., p<0.05",best survival percentage
same,"survival of LPS treated mice, different doses","[1]; olorinab 0.33, 1 or 5 mg/kg i.p. twice daily from 24 h before LPS",beneficial effect
YGFGG [5aa-OGP],effect on T-cells in spleen and bone marrow,[5],did not affect T-cells
